Converted amounts (≈) assume the structure as drawn.
Tests used:
Type in all cases: cell-based
[1] = system: E. coli MP-4; assay: MIC determination by CLSI broth dilution, E. coli MP-4; settings: Escherichia coli, MP4, CLSI broth dilution; strain MP-4
[2] = system: K. pneumoniae MP-648; assay: MIC determination by CLSI broth dilution, K. pneumoniae MP-648; settings: Klebsiella pneumoniae, MP648, CLSI broth dilution; strain MP-648
[3] = system: A. baumannii MP-15; assay: MIC determination by CLSI broth dilution, A. baumannii MP-15; settings: Acinetobacter baumannii, MP15, strain MP-15, read-out: MIC A. baumanii MP-15
[4] = system: K. pneumoniae MP-546; assay: MIC determination by CLSI broth dilution, K. pneumoniae MP-546; settings: Klebsiella pneumoniae, MP546, CLSI broth dilution; strain MP-546
[5] = system: P. aeruginosa MP-3; assay: MIC determination by CLSI broth dilution, P. aeruginosa MP-3; settings: Pseudomonas aeruginosa, MP3, strain MP-3
[6] = system: S. aureus MP-12; assay: microbe, parasite or virus in culture; settings: Staphylococcus aureus, MP12, read-out: MIC S. aureus MP-12

| SMILES | MIC [1] | MIC [2] | MIC [3] | MIC [4] | MIC [5] | MIC [6] |
| --- | --- | --- | --- | --- | --- | --- |
| COCCCN1CCC(C[C@@H]2COC(=O)C(C)(C)C(=O)[C@H](C)[C@@H](O[C@@H]3O[C@H](C)C[C@H](N(C)C)[C@H]3O)[C@](C)(OC)C[C@@H](C)CN2C)CC1 [Compound 50] | < 4 µg/mL | < 4 µg/mL | > 32 µg/mL | < 4 µg/mL | > 32 µg/mL | 4 to 32 µg/mL (≈ 5.97 to 47.8 µM) |
| CO[C@]1(C)C[C@@H](C)CN(C)[C@H](CC2CCNCC2)COC(=O)C(C)(C)C(=O)[C@H](C)[C@H]1O[C@@H]1O[C@H](C)C[C@H](N(C)C)[C@H]1O [Compound 51] | 4 to 32 µg/mL (≈ 6.69 to 53.5 µM) | > 32 µg/mL | > 32 µg/mL | > 32 µg/mL | > 32 µg/mL | > 32 µg/mL |
| CO[C@]1(C)C[C@@H](C)CN(C)[C@H](CC2CCN(C(C)C)CC2)COC(=O)C(C)(C)C(=O)[C@H](C)[C@H]1O[C@@H]1O[C@H](C)C[C@H](N(C)C)[C@H]1O [Compound 52] | < 4 µg/mL | 4 to 32 µg/mL (≈ 6.25 to 50 µM) | > 32 µg/mL | < 4 µg/mL | > 32 µg/mL | 4 to 32 µg/mL (≈ 6.25 to 50 µM) |
| CCC(CCNCC(C)C)C[C@@H]1COC(=O)C(C)(C)C(=O)[C@H](C)[C@@H](O[C@@H]2O[C@H](C)C[C@H](N(C)C)[C@H]2O)[C@](C)(OC)C[C@@H](C)CN1C (stereo partly drawn) [Compound 53] | < 4 µg/mL | < 4 µg/mL | > 32 µg/mL | < 4 µg/mL | > 32 µg/mL | 4 to 32 µg/mL (≈ 6.1 to 48.8 µM) |
| CO[C@]1(C)C[C@@H](C)CN(C)[C@H](CC2CCN(CC3CCCCC3)CC2)COC(=O)C(C)(C)C(=O)[C@H](C)[C@H]1O[C@@H]1O[C@H](C)C[C@H](N(C)C)[C@H]1O [Compound 55] | < 4 µg/mL | < 4 µg/mL | > 32 µg/mL | < 4 µg/mL | > 32 µg/mL | 4 to 32 µg/mL (≈ 5.76 to 46.1 µM) |
| CCCCCCCN1CCC(C[C@@H]2COC(=O)C(C)(C)C(=O)[C@H](C)[C@@H](O[C@@H]3O[C@H](C)C[C@H](N(C)C)[C@H]3O)[C@](C)(OC)C[C@@H](C)CN2C)CC1 [Compound 56] | < 4 µg/mL | < 4 µg/mL | > 32 µg/mL | < 4 µg/mL | > 32 µg/mL | 4 to 32 µg/mL (≈ 5.75 to 46 µM) |
| CO[C@]1(C)C[C@@H](C)CN(C)[C@H](CC2CCN(CC3CC3)CC2)COC(=O)C(C)(C)C(=O)[C@H](C)[C@H]1O[C@@H]1O[C@H](C)C[C@H](N(C)C)[C@H]1O [Compound 57] | < 4 µg/mL | < 4 µg/mL | > 32 µg/mL | < 4 µg/mL | > 32 µg/mL | 4 to 32 µg/mL (≈ 6.14 to 49.1 µM) |
| CCC(CC)CN1CCC(C[C@@H]2COC(=O)C(C)(C)C(=O)[C@H](C)[C@@H](O[C@@H]3O[C@H](C)C[C@H](N(C)C)[C@H]3O)[C@](C)(OC)C[C@@H](C)CN2C)CC1 [Compound 58] | < 4 µg/mL | < 4 µg/mL | > 32 µg/mL | < 4 µg/mL | > 32 µg/mL | 4 to 32 µg/mL (≈ 5.87 to 46.9 µM) |
| CCCN1CC=C(C[C@@H]2COC(=O)C(C)(C)C(=O)[C@H](C)[C@@H](O[C@@H]3O[C@H](C)C[C@H](N(C)C)[C@H]3O)[C@](C)(OC)C[C@@H](C)CN2C)CC1 [Compound 59] | < 4 µg/mL | 4 to 32 µg/mL (≈ 6.27 to 50.2 µM) | > 32 µg/mL | < 4 µg/mL | > 32 µg/mL | < 4 µg/mL |
| CO[C@]1(C)C[C@@H](C)CN(C)[C@H](CC2CCN(C3CCCC3)CC2)COC(=O)C(C)(C)C(=O)[C@H](C)[C@H]1O[C@@H]1O[C@H](C)C[C@H](N(C)C)[C@H]1O [Compound 60] | < 4 µg/mL | < 4 µg/mL | > 32 µg/mL | < 4 µg/mL | > 32 µg/mL | 4 to 32 µg/mL (≈ 6.01 to 48.1 µM) |
| CO[C@]1(C)C[C@@H](C)CN(C)[C@H](CC2CCN(Cc3ccncc3)CC2)COC(=O)C(C)(C)C(=O)[C@H](C)[C@H]1O[C@@H]1O[C@H](C)C[C@H](N(C)C)[C@H]1O [Compound 61] | < 4 µg/mL | 4 to 32 µg/mL (≈ 5.81 to 46.4 µM) | > 32 µg/mL | 4 to 32 µg/mL (≈ 5.81 to 46.4 µM) | > 32 µg/mL | 4 to 32 µg/mL (≈ 5.81 to 46.4 µM) |

From US12552825B2 (Zikani Therapeutics, Inc., priority 2019, dated 2026)
